The values that follow come from patent US20220241416A1, “METHODS FOR THE IDENTIFICATION OF SARM1 NADASE ACTIVITY INHIBITORS AND USES THEREOF” (Bar Ilan University, priority 2021, published 2022).

Data set [1] deals with T1, hSARM1 (Homo sapiens, UniProt Q6SZW1).
T1 construct: hSARM1w.t; (26ERL . . . GPT724) that was not mutated in E642, was also expressed and isolated; 6xHis (N); TEV cleavage site (N); made in house; host or cells: HEK293F suspension cells
T1 sequence (Q6SZW1 with tags, fused parts or gaps): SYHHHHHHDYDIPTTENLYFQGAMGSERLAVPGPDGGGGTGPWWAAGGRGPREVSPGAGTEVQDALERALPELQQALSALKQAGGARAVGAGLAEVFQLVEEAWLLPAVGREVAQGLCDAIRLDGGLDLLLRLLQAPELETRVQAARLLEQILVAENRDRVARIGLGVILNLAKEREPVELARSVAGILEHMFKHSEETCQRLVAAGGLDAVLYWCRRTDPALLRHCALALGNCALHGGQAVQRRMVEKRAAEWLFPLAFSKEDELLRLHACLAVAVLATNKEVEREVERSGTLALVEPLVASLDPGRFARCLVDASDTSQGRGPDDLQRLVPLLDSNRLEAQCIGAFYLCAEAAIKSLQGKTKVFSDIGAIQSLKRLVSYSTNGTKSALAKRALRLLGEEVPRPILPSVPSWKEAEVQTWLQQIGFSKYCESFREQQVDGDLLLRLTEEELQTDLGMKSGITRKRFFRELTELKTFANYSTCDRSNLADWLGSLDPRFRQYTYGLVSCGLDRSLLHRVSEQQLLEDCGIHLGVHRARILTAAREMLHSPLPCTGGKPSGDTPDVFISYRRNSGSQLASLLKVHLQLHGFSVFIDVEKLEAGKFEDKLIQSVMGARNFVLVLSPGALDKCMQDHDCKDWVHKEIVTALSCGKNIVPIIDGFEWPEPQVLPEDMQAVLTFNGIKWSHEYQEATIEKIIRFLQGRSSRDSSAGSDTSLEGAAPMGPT
Put plainly: HPLC analysis of time dependent NAD+ consumption by hSARM1. The format is biochemical. To be noted: 50 μM NAD+. How it is done: Purified hSARM1w.t. was first diluted to 800 nM in 25 mM HEPES pH 7.5, 150 mM NaCl, and then mixed in 37° C. with different concentrations of NAD+(in the same buffer) in a 1:1 v/v ratio and incubated for 0, 5 and 30 min. 1:100 (v/v). BSA (NEB Inc. 20 mg/ml) was included, and reactions were stopped by heating at 95° C. for 2 minutes. Where specified, NMN (Sigma-Aldrich-N3501) was added in different concentrations. For control, NAD+ consumption was compared to a commercially available porcine brain NADase 0.025 units/ml (Sigma-Aldrich-N9879).
HPLC measurements were performed using a Merck Hitachi Elite LaChrom HPLC system equipped with an autosampler, UV detector and quaternary pump. HPLC traces were monitored at 260 nm and integrated using EZChrom Elite software. 10 μL of each sample were injected onto a Waters Spherisorb ODS1 C18 RP HPLC Column (5 μm particle size, 4.6 mm×150 mm ID). HPLC solvents are: A: 100% methanol; B: 120 mM sodium phosphate pH 6.0; C double-distilled water (DDW). The column was pre-equilibrated with B:C mixture ratio of 80:20. Chromatography was performed at room temperature with a flow rate of 1.5 ml/min. Each analysis cycle was 12 min long as follows (A:B:C, v/v): fixed 0:80:20 0-4 min; gradient to 20:80:0 4-6 min; fixed 20:80:0 from 6-9 min. gradient to 0:80:20 from 9-10 min; fixed 0:80:20 from 10-12 min. The NAD+ hydrolysis product ADPR was eluted at the isocratic stage of the chromatography while NAD+ elutes in the methanol gradient stage.

The test system of data set [2] is Mouse DRG explants. Put plainly: Axon degeneration assay after axotomy, DRG explants. The format is cell-based. Particulars: 10-30 μM compound; 16 hours post axotomy. How it is done:
(§1) FIG. 15A. Mouse DRG explants cultures were grown in NGF containing media for 96 hours. Right before axotomy, the media was exchanged and supplemented with either 10-30 μM of the hSARM1 inhibitory compounds or just with 0.2% DMSO for control, and then the culture were left to grow for additional 16 hours. The white dashed lines indicate cut site (axotomy). To evaluate toxic side effects, we applied […] of the inhibitory compounds without performing axotomy. The axons were stained with anti-Tuj1 antibody.
(§2) Dorsal root ganglion (DRG) were dissected from E13.5 wild-type mice and plated in 8-wells chamber coated with 10 μg/ml poly-d-lysin (Sigma-Aldrich, St Louis. Mo.) and 10 μg/ml mouse Laminin (Sigma-Aldrich). The DRGs were grown in Neurobasal™-A (NB, GIBCO, 10888022) medium supplemented with B27 (Gibco, Waltham, Mass.), penicillin-streptomycin solution, glutamine (Biological Industries, Beit HaEmek, Israel), and NGF (Alomone Labs. Jerusalem, Israel) in a humidified incubator (37° C. 5% CO2).
(§3) After 96 h, the medium was exchanged to NGF containing medium, supplemented with 10-30 μM SARM1 inhibitory compounds, which were first dissolved in DMSO to a 10 mM stock concentration. For axotomy, axons were cut using a needle, in close proximity to the cell body and were examined 16 hours post-axotomy. […]
(§4) Images were binarized such that pixels corresponding to axons converted to white, while all other regions converted to black. The images were analyzed using Image) software with algorithm that distinguishes fragmented from intact axonal segments. To each image we calculated the degeneration index (DI) defined as the ratio of fragmented to intact axon number. To quantify axonal protection, we normalized the DI values to DMSO with axotomy, and then we divide one by each calculated value. […] To quantify axonal degeneration caused by the compounds' toxicity, we normalized the DI values to DMSO control without axotomy and generated a degeneration index. From each explant, 4 nonoverlapping frames were randomly collected and quantified per experimental condition.

Another data set deals with T2, zfSARM1 (Danio rerio, UniProt F1QWA8).
T2 sequence (F1QWA8 1-713): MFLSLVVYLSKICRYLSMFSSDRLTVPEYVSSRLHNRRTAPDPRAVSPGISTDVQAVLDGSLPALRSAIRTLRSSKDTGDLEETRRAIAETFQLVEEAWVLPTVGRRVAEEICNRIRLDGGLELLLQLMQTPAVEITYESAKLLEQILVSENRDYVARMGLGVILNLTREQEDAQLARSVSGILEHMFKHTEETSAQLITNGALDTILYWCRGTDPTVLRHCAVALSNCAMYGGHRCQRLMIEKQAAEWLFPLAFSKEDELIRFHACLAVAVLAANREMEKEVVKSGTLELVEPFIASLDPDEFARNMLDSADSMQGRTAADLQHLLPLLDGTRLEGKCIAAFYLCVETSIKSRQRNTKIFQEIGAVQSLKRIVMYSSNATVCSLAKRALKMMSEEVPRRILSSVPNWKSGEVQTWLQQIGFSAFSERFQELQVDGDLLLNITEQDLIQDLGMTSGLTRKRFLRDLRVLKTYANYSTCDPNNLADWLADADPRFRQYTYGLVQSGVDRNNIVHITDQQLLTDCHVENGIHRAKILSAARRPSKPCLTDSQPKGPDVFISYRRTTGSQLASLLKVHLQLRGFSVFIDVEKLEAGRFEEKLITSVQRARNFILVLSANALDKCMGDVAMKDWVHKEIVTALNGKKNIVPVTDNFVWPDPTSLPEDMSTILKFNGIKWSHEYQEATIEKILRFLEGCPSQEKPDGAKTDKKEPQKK
As to the kind of experiment: Effect of hSARM1 inhibitors on zfSARM1 NADase activity (ADPR by HPLC). The format is biochemical, Zebrafish.

In data set [3] the test system is Mouse DRG explants. Put plainly: Toxic side effects on DRG explants without axotomy. The format is cell-based. To be noted: 10-30 μM compound; no axotomy. The procedure: as §1, §2, §3, §4
For data set [4], the target named is T1, hSARM1. As to the kind of experiment: Determination of IC50 and mode of inhibition of hSARM1 NADase (ADPR by HPLC). The format is biochemical. Particulars: for mode of inhibition, Lineweaver-Burk plot: 10 μM inhibitor, NAD+ 1-160 μM; for IC50: 50 μM NAD+, 10 min pre-incubation at room temperature, 10 min at 37° C.
Another data set addresses hSARM1 FP255-6RR (human) (UniProt Q6SZW1). Put plainly: cell-based or functional assay.
Data set [5] concerns the target hSARM1RR216-7EE/FP255-6RR (human) (UniProt Q6SZW1). As to the kind of experiment: cell-based or functional assay.

Entries after “also recorded” stand apart in the source; their conditions may differ. Like-named read-outs stand apart in the source and are kept apart here.

Take `NC(=O)c1ccc[n+]([C@@H]2O[C@H](COP(=O)([O-])O)[C@@H](O)[C@H]2O)c1` [NMN, nicotinamide mononucleotide, reference compound]: the “effect on hSARM1 NADase activity” value at hSARM1 [1] (0.2 mM NMN) is “no visible effect”. Moreover, the “increase in hSARM1 NADase activity” value at hSARM1 [1] (1 mM NMN) worked out at 30%.

Usually EC50 stands for the midpoint of the concentration-response curve. For the molecule `O=NN1CCCCC1` [TK138], in the data set on Mouse DRG explants [2], the “protection of axons after axotomy” value was “high level of protection; also recorded: highest level of protection”. At zfSARM1 (50 μM NAD+, ADPR production by HPLC, read-out: EC50, activation of zfSARM1 NADase), the EC50 turned out to be 2.7 µM. In the data set with Mouse DRG explants [3], the “toxic effect on axons without axotomy” value is on record as “only very mildly toxic; also recorded: significant toxic effect”. The “mode of inhibition, Lineweaver-Burk plot” value on hSARM1 [4] was “competitive pattern”.

As a reminder, the IC50 is the point on the concentration scale where inhibition reaches its midpoint. A lower IC50 goes with inhibition by little substance. As for `CCOC(=O)Cn1sc2nc(C)cc(C)c2c1=O` [TK142], in the data set with Mouse DRG explants [2], the “protection of axons after axotomy” value was “only mild protection”. Moreover, on zfSARM1, the “effect on zfSARM1 NADase activity (words)” value is given as “concentration-dependent inhibitory effects”. For the same molecule, the “effect on zfSARM1 NADase activity (words)” value on zfSARM1 (listed as TK 142) is “specific inhibitory effect”. For the same molecule, in the data set on Mouse DRG explants [3], the “toxic effect on axons without axotomy” value is reported as “not toxic at all”. In addition, at hSARM1 [4], the “mode of inhibition, Lineweaver-Burk plot” value was “competitive pattern” and the IC50 is at most 10 µM.

For the molecule `O=C(c1ccccn1)N1C[C@H]2OC(=O)N(CCCN3CCOCC3)[C@H]2C1` [TK174], the “protection of axons after axotomy” value in the data set on Mouse DRG explants [2] is reported as “did not protect axons after axotomy”. The “toxic effect on axons without axotomy” value in the data set with Mouse DRG explants [3] is “not toxic”. At hSARM1 [4], this molecule came in with an IC50 of at most 10 µM.

As to “hSARM1 FP255-6RR (from UniProt Q6SZW1 26-724) (enzyme)”, the cell death 24 hours after transfection (resazurin fluorescence assay, HEK-293T cells) with hSARM1 FP255-6RR (human) came to 50%.

In turn, “hSARM1RR216-7EE/FP255-6RR (from UniProt Q6SZW1 26-724) (enzyme)” returned a cell death 24 hours after transfection (resazurin fluorescence assay, HEK-293T cells) in data set [5] of 50%.
